{"source": "patent US11236081B2", "about": "“Crystalline salts of corydalmine” (priority 2018, dated 2022)", "key": {"[1]": {"experiment": "Pharmacokinetic study: plasma concentration and plasma PK parameters after IV/PO dosing (LC-MS/MS, WinNonlin)", "assay_type": "in vivo, Male SD Rat", "conditions": "for concentration in plasma / concentration in plasma, Mean: male SD rat, PO 10 mg/kg (equal to freebase), vehicle 20% HP-β-CD in water (POA, freebase) or water (salts); for concentration in plasma: individual rats; for concentration in plasma, Mean: mean n=3", "from_the_text": "Pharmacokinetic and Brain Penetration Study\nDose formulation processing during dosing: The dose formulations will be kept at room temperature.\nConcentrations of Test Article in the plasma samples will be analyzed using a LC-MS/MS method.\nWinNonlin (Phoenix™, version 6.1) or other similar software will be used for pharmacokinetic calculations. The following pharmacokinetic parameters will be calculated, whenever possible from the plasma concentration versus time data:\nIV administration: T1/2, C0, AUClast, AUCinf, MRTinf, Cl, Vss, Number of Points for Regression.\nPO administration: T1/2, Cmax, Tmax, MRTinf, AUCinf, AUClast, F %, Number of Points for Regression.\nThe pharmacokinetic data will be described using descriptive statistics such as mean, standard deviation."}, "[2]": {"experiment": "Solubility studies in water at 2 hours", "assay_type": "physicochemical"}, "[3]": {"experiment": "Dynamic vapor sorption (DVS), hygroscopicity at 25° C.", "assay_type": "physicochemical", "protocol": "Dynamic Vapor Sorption (DVS)\nDVS was determined using DVS Intrinsic (SMS, UK). Transfer about 20 to 50 mg of the compound into a SMS dynamic vapor sorption model DVS and record the weight change with respect to a varying atmospheric humidity at 25° C."}, "[4]": {"conditions": "plasma, PO (group POE), 10 mg/kg, individual rats R40, R41, R42, 10 mg/kg"}, "[5]": {"conditions": "plasma, PO (group POE), 10 mg/kg, mean of R40-R42"}}, "note": "Several values for one entry are separate records, joined by “and”; a condition that tells them apart may be missing. Equal entries are not always repeated.", "data": [{"smiles": "COc1cc2c(cc1OC)[C@@H]1Cc3ccc(O)c(OC)c3CN1CC2.O=C(O)C(=O)O", "note": "[TLZ-16 oxalate]", "values": [{"measurement": "F", "setting": "[1]; PO (group POE), 10 mg/kg, individual rats R40, R41, R42, 10 mg/kg", "value": "18.5% and 28.8% and 25.3%"}, {"measurement": "F, Mean", "setting": "[1]; PO (group POE), 10 mg/kg, mean of R40-R42", "value": 24.2, "unit": "%"}, {"measurement": "concentration in plasma", "setting": "[1]; 0 h", "value": "BLOQ (BLOQ = below limit of quantitation (0.2 ng/mL))"}, {"measurement": "concentration in plasma", "setting": "[1]; 0.25 h, 10 mg/kg", "value": "302 ng/mL and 368 ng/mL and 131 ng/mL"}, {"measurement": "concentration in plasma, Mean", "setting": "[1]; 0.25 h", "value": 267, "unit": "ng/mL"}, {"measurement": "concentration in plasma", "setting": "[1]; 0.5 h, 10 mg/kg", "value": "270 ng/mL and 309 ng/mL and 148 ng/mL"}, {"measurement": "concentration in plasma, Mean", "setting": "[1]; 0.5 h", "value": 242, "unit": "ng/mL"}, {"measurement": "concentration in plasma", "setting": "[1]; 1 h, 10 mg/kg", "value": "143 ng/mL and 200 ng/mL and 121 ng/mL"}, {"measurement": "concentration in plasma, Mean", "setting": "[1]; 1 h", "value": 155, "unit": "ng/mL"}, {"measurement": "concentration in plasma", "setting": "[1]; 2 h, 10 mg/kg", "value": "70.8 ng/mL and 86.0 ng/mL and 156 ng/mL"}, {"measurement": "concentration in plasma, Mean", "setting": "[1]; 2 h", "value": 104, "unit": "ng/mL"}, {"measurement": "concentration in plasma", "setting": "[1]; 4 h, 10 mg/kg", "value": "63.1 ng/mL and 120 ng/mL and 95.0 ng/mL"}, {"measurement": "concentration in plasma, Mean", "setting": "[1]; 4 h", "value": 92.7, "unit": "ng/mL"}, {"measurement": "concentration in plasma", "setting": "[1]; 8 h, 10 mg/kg", "value": "10.1 ng/mL and 56.8 ng/mL and 29.1 ng/mL"}, {"measurement": "concentration in plasma, Mean", "setting": "[1]; 8 h", "value": 32.0, "unit": "ng/mL"}, {"measurement": "concentration in plasma", "setting": "[1]; 24 h", "value": "BLOQ (BLOQ = below limit of quantitation (0.2 ng/mL))"}, {"measurement": "AUCInf", "setting": "[1]; [4]", "value": "629 ng·h/mL and 1369 ng·h/mL and 859 ng·h/mL"}, {"measurement": "AUClast", "setting": "[1]; [4]", "value": "600 ng·h/mL and 960 ng·h/mL and 756 ng·h/mL"}, {"measurement": "AUClast/D", "setting": "[1]; [4]", "value": "60 kg·ng·h/mL/mg and 96 kg·ng·h/mL/mg and 75.6 kg·ng·h/mL/mg"}, {"measurement": "AUC—% Extrap_obs", "setting": "[1]; [4]", "value": "4.67% and 29.8% and 12.0%"}, {"measurement": "Cmax", "setting": "[1]; [4]", "value": "302 ng/mL and 368 ng/mL and 156 ng/mL"}, {"measurement": "MRTInf_obs", "setting": "[1]; [4]", "value": "2.59 h and 6.60 h and 3.95 h"}, {"measurement": "T1/2", "setting": "[1]; [4]", "value": "2.02 h and 4.98 h and 2.46 h"}, {"measurement": "Tmax", "setting": "[1]; [4]", "value": "0.25 h (2×) and 2 h"}, {"measurement": "AUCInf, Mean", "setting": "[1]; [5]", "value": 952, "unit": "ng·h/mL"}, {"measurement": "AUClast, Mean", "setting": "[1]; [5]", "value": 772, "unit": "ng·h/mL"}, {"measurement": "AUClast/D, Mean", "setting": "[1]; [5]", "value": 77.2, "unit": "kg·ng·h/mL/mg"}, {"measurement": "AUC—% Extrap_obs, Mean", "setting": "[1]; [5]", "value": 15.5, "unit": "%"}, {"measurement": "Cmax, Mean", "setting": "[1]; [5]", "value": 275, "unit": "ng/mL"}, {"measurement": "MRTInf_obs, Mean", "setting": "[1]; [5]", "value": 4.38, "unit": "h"}, {"measurement": "T1/2, Mean", "setting": "[1]; [5]", "value": 3.15, "unit": "h"}, {"measurement": "Tmax, Mean", "setting": "[1]; [5]", "value": 0.833, "unit": "h"}, {"measurement": "solubility in water", "setting": "[2]", "value": "approximately 19.2 mg/mL"}, {"measurement": "hygroscopicity (DVS)", "setting": "[3]; DVS, 25° C.", "value": "slightly hygroscopic"}, {"measurement": "solid form after DVS test", "setting": "[3]; after DVS test", "value": "does not change"}, {"measurement": "water absorbed in DVS", "setting": "[3]; at 80% RH, 25° C.", "value": "about 0.25 wt %"}]}]}
